According to patent publication US20170355959A1, “METHODS FOR MOBILISING POPULATIONS OF STEM CELLS” (Imperial Innovations Limited, priority 2014, published 2017):

Columns and labels:
free fatty acids = experiment: Free fatty acid assay in blood plasma; type: in vivo, mice; details: treatment over 4 days
Procedure: Mice were administered the β-adrenergic agonists isoproterenol (10 mg/kg i.p.), clenbuterol (5 mg/kg i.p.) and BRL 37344 (10 mg/kg i.p.), the cannabinoid receptor agonists ACEA (10 mg/kg i.p.) and GP1a (5 mg/kg i.p.), or vehicle either on 4 consecutive days or 2 hours prior to the cull. 1 hour after the last injection, mice were administered the CXCR4 antagonist AMD3100 (5 mg/kg i.p.) or vehicle. 1 hour later their blood was collected via cardiac puncture for enumeration of circulating CFU-HPCs and CFU-Fs. Mice were administered murine G-CSF (100 μg/kg i.p.) or vehicle on 4 consecutive days. On day 5, blood was collected via cardiac puncture for enumeration of circulating HSPCs.
Free fatty acid content in blood plasma was quantified using a serum/plasma fatty acid detection Kit (Zen Bio) and the assay was performed according to the manufacturers' instructions. Data are expressed as μM concentration of free fatty acids.

[1] = system: endocannabinoids and N-acyl ethanolamides; experiment: Lipid mediator quantification in bone marrow by UPLC/ESI-MS/MS; type: in vivo, mice
Procedure: Plasma and bone marrow flush (pool of 3 mice, n=1) were processed in order for the extraction of endocannabinoids and congeners (Astarita and Piomelli, 2009; Kingsley and Marnett, 2009). Samples were analysed on an electrospray (ESI) tandem quadrupole Xevo TQ-S mass spectrometer (MS/MS; Waters) coupled to an Acquity Ultrahigh Pressure Chromatography (UPLC) system, and the concentration of analytes was calculated (TargetLynx). Further details concerning extraction and analysis can be found in the Supplemental Experimental Procedures.
Bone marrow flushed from the femurs of 3 mice were pooled (6 ml in total) per treatment to give an n=1 sample. This volume was required to achieve sufficient concentrations of endocannabinoids and N-acyl ethanolamides for detection by UPLC/ESI-MS/MS. Extraction of lipids was carried out by addition of chloroform:methanol (2:1, v/v) (Astarita and Piomelli, 2009; Kingsley and Mamett, 2009). Specifically, ice cold chloroform:methanol was added to each bone marrow supernatant (ml per pooled bone marrow sample), followed by the internal standards AEA-d8 (20 ng) and 2AG-d8 (40 ng). The resulting suspensions were kept on ice for 30 min with occasional vortexing and centrifuged at 5000 rpm for 8 min, to separate the organic and aqueous phases. The organic layer (bottom) from each sample was then removed into a clean vial. The supernatant was evaporated under a fine stream of nitrogen. Once dried the extract was reconstituted in 1 ml of chloroform and semi-purified by SPE (Guo et al, 2010). Briefly, the silica cartridge was equilibrated with 5×1 ml cholorform, the extract was applied, the cartridge was washed with 2×1 ml chloroform and the endocannabinoids eluted with 5×1 ml chloroform:methanol (2:1 v/v). The remaining residue, reconstituted in 100 μL ethanol was stored at −20° C., for no more than 1 week, awaiting UPLC/ESI-MS/MS analysis.
All analysis was performed on an electrospray (ESI) tandem quadrupole Xevo TQ-S mass spectrometer (Waters) coupled to an Acquity Ultrahigh Pressure Chromatography (UPLC) system. The system was controlled by MassLynx v4.1 Software. TargetLynx was used to construct calibration lines and calculate the concentration of analytes of interest. Optimised ESI-MS/MS conditions were achieved through the use of Intellistart within MassLynx software. Individual standards (100 pg/μl) were introduced into the spectrometer by direct infusion via the Xevo TQ-S integrated syringe pump (flow rate 10 μl/min) combined with UPLC solvent flow (rate 0.2 mL/min). All analytes were monitored on the positive ionisation mode. Capillary voltage was set at 2000V, source temperature at 150° C., desolvation temperature at 400° C. and the cone voltage at 20 V. […]

[2] = 4 days, in combination with FAAH inhibition, versus FAAH inhibition only

SMILES: C[C@H](Cc1ccc(OCC(=O)O)cc1)NC[C@H](O)c1cccc(Cl)c1 [BRL37344]
- FFA levels in plasma (free fatty acids): an increase
- bone marrow levels of 2-AG [1, 2]: significantly increased
- bone marrow levels of DHEA [1, 2]: significantly increased
- bone marrow levels of PEA [1, 2]: significantly increased
- bone marrow levels of other N-acyl ethanolamides, including AEA ([1]; following administration in vivo): remained unchanged
